# Data from the supplement of paper PMC10307832.
# What was measured:
# Assay in all cases: relative viability (nuclei count vs DMSO), 5 days (fraction); higher = more cells survive
# VE-821 + Decitabine = compound: CS(=O)(=O)c1ccc(-c2cnc(N)c(C(=O)Nc3ccccc3)n2)cc1 [VE-821] + Nc1ncn([C@H]2C[C@H](O)[C@@H](CO)O2)c(=O)n1 [Decitabine] (partner 2 µM)
# In short: (§1)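 Relative viability is defined as nuclei in treated wells over nuclei in vehicle wells. Duplicate plates were run and medians reported. Lung cancer cell lines in 1536-well plates were dosed by pin tool one day after seeding, with one drug or with a fixed anchor-drug dose plus five library-drug doses (not always all listed) in √10 steps, and nuclei were counted after 5 days.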
# [1] = compound: N#CC[C@H](C1CCCC1)n1cc(-c2ncnc3[nH]ccc23)cn1 [Ruxolitinib] + CC(=O)c1c(C)c2cnc(Nc3ccc(N4CCNCC4)cn3)nc2n(C2CCCC2)c1=O [Palbociclib] (partner 0.5 µM)
# In short: as §1
# VE-821 + OSI-027 = compound: CS(=O)(=O)c1ccc(-c2cnc(N)c(C(=O)Nc3ccccc3)n2)cc1 [VE-821] + COc1cccc2cc(-c3nc([C@H]4CC[C@H](C(=O)O)CC4)n4ncnc(N)c34)[nH]c12 [OSI-027] (partner 0.5 µM)
# In short: as §1
# VE-821 + Crizotinib = compound: CS(=O)(=O)c1ccc(-c2cnc(N)c(C(=O)Nc3ccccc3)n2)cc1 [VE-821] + C[C@@H](Oc1cc(-c2cnn(C3CCNCC3)c2)cnc1N)c1c(Cl)ccc(F)c1Cl [Crizotinib] (partner 1 µM)
# In short: as §1
cell line,measurement,setting,value
UMC-11,relative viability,VE-821 + Decitabine; first compound 0.08 µM,0.687
same,relative viability,VE-821 + Decitabine; first compound 0.253 µM,0.617
same,relative viability,VE-821 + Decitabine; first compound 0.8 µM,0.583
same,relative viability,VE-821 + Decitabine; first compound 2.53 µM,0.664
same,relative viability,VE-821 + Decitabine; first compound 8 µM,0.479
same,relative viability,[1]; first compound 0.08 µM,0.345
same,relative viability,[1]; first compound 0.253 µM,0.399
same,relative viability,[1]; first compound 0.8 µM,0.329
same,relative viability,[1]; first compound 2.53 µM,0.366
same,relative viability,[1]; first compound 8 µM,0.362
same,relative viability,VE-821 + OSI-027; first compound 0.08 µM,0.507
same,relative viability,VE-821 + OSI-027; first compound 0.253 µM,0.436
same,relative viability,VE-821 + OSI-027; first compound 0.8 µM,0.508
same,relative viability,VE-821 + OSI-027; first compound 2.53 µM,0.477
same,relative viability,VE-821 + OSI-027; first compound 8 µM,0.325
same,relative viability,VE-821 + Crizotinib; first compound 0.08 µM,0.85
same,relative viability,VE-821 + Crizotinib; first compound 0.253 µM,0.681
same,relative viability,VE-821 + Crizotinib; first compound 0.8 µM,0.534
same,relative viability,VE-821 + Crizotinib; first compound 2.53 µM,0.626
same,relative viability,VE-821 + Crizotinib; first compound 8 µM,0.238
